Experimental data from patent US9655828B2, “Glucuronolactone derivatives as self-tanning substances” (Merck Patent GmbH, priority 2013, dated 2017).

Assays:
[1] = Liquid skin model (reaction with L-lysine, L*a*b* values); details: for L* / a* / b*: 1 mmol substance + 1 mmol L-lysine in 100 ml phosphate-buffered water (pH=7)/ethylene glycol 6:94; for L* / a* / b* / L values compared with erythrulose or glucuronolactone: after 24 hours; for hue achieved: conclusion from a values
Procedure: The mixture is subsequently made up to the mark with a mixture of 6 ml of phosphate-buffered water (pH=7) and 94 ml of ethylene glycol. The reaction is observed with vigorous stirring, and the L*a*b* values are determined after 24 hours.

[2] = test system: histological explants from lower abdomen tissue; assay: Ex-vivo study: chromametric measurement of skin explants (ITA); design: species or system human; details: 4% substance, 30 μl applied daily for 2 h
Procedure: 24 histological explants having an average diameter of 10 mm are prepared from the lower abdomen tissue of a person. The pieces of tissue are kept in BEM medium (BIO-EC's Explants Medium) at 37° C. in a humid atmosphere comprising 5% of CO2.
The tissue is divided into 8 batches of 3 explants each: • A negative control (untreated sample, treated only with the vehicle Mygliol)→E • A positive control (4% dihydroxyacetone)→R1 • A positive control (4% erythrulose)→R2 • Glucuronolactone (4%)→P1 • Compound of the formula (Ig) (4%)→P2 • Compound of the formula (Ia) (4%)→P3
30 μl of the substance solutions are applied on 10 consecutive days using a round filter paper and left to act for 2 h. On days 1, 3 and 7, the explants are measured chromametrically.
The colour measurements are carried out using a Minolta CR-300 Chroma-meter, and the L, a and b values are read off correspondingly on the instrument.
In 1931, a test series was carried out by the CIE (Commision Internationale de L'Eclairage), where the “2-degree standard observer” was defined. A colour area is present here which is viewed at a viewing angle of 2 degrees. This viewing angle is used as standard in the chromametric measurement. • Irradiation source D65, corresponding to daylight • Region of the measurement: 3 mm • Parameters used: L*a*b*
The sample is placed on the bearing rail with the epidermis facing downwards. The irradiation is carried out from the underside through the area indicated (3 mm).
In the colorimetric determinations <<L a b>>, the L value determines the contrast of the skin. If the L value drops, the skin appears darker.
ITA is defined as arctang[(L-50)/b]. If the ITA index increases, the skin appears paler.

[3] = Colouring test on merino wool balls; details: 1 mmol substance in 100 ml buffer (pH 7)/ethylene glycol 6:94, RT, 24 h, then washed and dried; compared with untreated sample
Procedure: In each case, 1 mmol of the substance to be tested are weighed out into a 100 ml conical flask with ground-glass joint:
A merino wool ball with the size of a grape and a magnetic stirrer are then added to each conical flask.
A mixture of 6% by vol. of buffer (ph7) and 94% by vol. of ethylene glycol is then prepared, 100 ml of this mixture are added to each conical flask and stirred at RT for 24 h.
After 24 h, the wool balls are washed firstly with water, then with warm washing-powder solution and again with water and dried.
This colouring result can also be applied to hair, since merino wool, like hair, is built up from proteins (keratins) and the outermost layer is in each case the cuticle.

Row | Compound | L* [1] | a* [1] | b* [1] | Day 1 (ITA value) [2] [%] | Day 3 (ITA value) [2] [%] | Day 7 (ITA value) [2] [%] | coloration of wool samples [3] | colour effect compared with erythrulose or glucuronolactone ([1]; identical concentration in the test formulation, in words) | L values compared with erythrulose or glucuronolactone ([1]; in words) | hue achieved ([1]; in words)
1 | O=C(CO)[C@H](O)CO [Erythrulose] | 93.50 | −4.40 | 32.66 | 4 | −4 | 4 | – | – | – | –
2 | O=C(CO)CO [DHA, 1,3-dihydroxyacetone] | 34.95 | 24.91 | 57.45 | −3 | 0 | −1 | no coloration | – | – | –
3 | O=C[C@H](O)[C@H]1OC(=O)[C@@H](O)[C@H]1O [Glucuronolactone] | 94.30 | −6.94 | 38.68 | 10 | 4 | −2 | very pale-yellow coloration | comparable colour effect to erythrulose | – | –
4 | COc1ccc(/C=C/C(=O)OC2C(=O)OC3C4OC(C)(C)OC4OC23)cc1 (centres unmarked) [Compound (Ia), 2,2-Dimethyl-5-oxohexahydrofuro[2′,3′:4,5]furo[2,3-d]-1,3-dioxol-6-yl(E)-3-(4-methoxyphenyl)acrylate] | 66.34 | 34.88 | 105.16 | −6 | −5 | −10 | orange-yellow coloration | – | lower L values than erythrulose or glucuronolactone | shifted more towards red
5 | CC(=O)OC1C(=O)OC2C3OC(C)(C)OC3OC12 (centres unmarked) [Compound (Io), 2,2-Dimethyl-5-oxohexahydrofuro[2′,3′:4,5]furo[2,3-d]-1,3-dioxol-6-yl acetate] | 87.51 | 2.41 | 92.10 | – | – | – | pale-yellow coloration | – | lower L values than erythrulose or glucuronolactone | –
6 | CC1(C)OC2OC3C(OC(=O)c4ccccc4)C(=O)OC3C2O1 (centres unmarked) [Compound (Ig)] | 64.09 | 36.87 | 103.8 | – | – | – | yellow coloration | – | lower L values than erythrulose or glucuronolactone | shifted more towards red
